In patent US11964978B2, “Modulators of STING (stimulator of interferon genes)” (PFIZER INC., priority 2021, dated 2024):
Read-outs that look alike come from different tables or passages of the source.

Legend:
R232-STING [1] = biological target: T1, R232-STING (Homo sapiens (Human), UniProt Q86WV6, H232R); test: biochemical
[2] = system: phosphorylation of IRF3 in THP-1 cells (STING activation); test: Phosphorylation of IRF3: THP-1 cell ELISA; format: cell-based; conditions: Homo sapiens, 3 hours incubation, read-out: THP-1 CELL P-IRF3 EC50
Method: Phosphorylation of IRF3: THP-1 cell ELISA
STING activation results in recruitment of TBK1 and phosphorylation of IRF3 transcription factor before induction of type I interferons. THP-1 cells (InvivoGen) were grown in RPMI media plus 2 mM L-glutamine, 10% fetal bovine serum, and 0.5% Pen-Strep. 10^4 cells were seeded in 96-well plates and incubated overnight […]. Compounds serial diluted compounds in media (final 0.5% DMSO) were added to the cells and incubated for an additional 3 hours. After incubation, the plates were centrifuged at 2000 rpm for 5 min. The cells were then lysed in 100 μl RIPA buffer and vortexed for 30 minutes at room temperature. 25 μl of lysate was then transferred to clear polystyrene High Bind plates that had been previously coated with mouse anti-human IRF-3 capture antibody (BD Pharmigen), and allowed to incubate at 4° C. for 16 hours. The plates were then washed and incubated with rabbit anti-phospho-IRF3 detection antibody (Cell Signaling Technologies) for 1.5 hours at room temperature. Finally, an HRP-linked secondary antibody (Cell Signaling Technologies) was added for 30 min before the Glo Substrate Reagent (R&D Systems) was used generate the luminescent signal. The signal was measured using a Perkin-Elmer Envision microplate reader. Data were normalized to “% effect” with a positive control STING agonist that was known to maximize the phosphorylated IRF3 signal and the negative control was DMSO.

[3] = system: THP-1 Lucia ISG cells (IRF-inducible Lucia luciferase reporter); test: Interferon-β induction: THP-1 ISG reporter cell line; format: cell-based; conditions: THP1-Lucia ISG, 24 hours incubation, read-out: THP-1 Lucia ISG Cells IFN-β EC50
Method: Interferon-β Induction: THP-1 ISG Reporter Cell Line
THP-1 Lucia™ ISG cells (InvivoGen) express the secreted luciferase “Lucia” reporter gene under the control of an IRF-inducible composite promotor comprised of five interferon response elements. THP-1 Lucia™ ISG cells were grown in RPMI media plus 2 mM L-glutamine, 10% fetal bovine serum, and 0.5% Pen-Strep. Hygromycin B and Zeocin were present to maintain stable transfection. 10^4 cells were seeded in 96-well plates and incubated overnight 37° C., 5% CO2. 50 μL of serial diluted compounds in media (final 0.5% DMSO) was and incubated for an additional 24 hours. After incubation, the plates were centrifuged at 2000 rpm for 10 min. 50 μl of cell culture supernatant of each well was transferred to a white, opaque 96-well plate. One pouch of QUANTI-Luc™ (InvivoGen) powder was prepared in 25 mL of endotoxin-free water and 100 μL of prepared warm QUANTI-Luc solution were added to each well containing the supernatant. The luminescence signal was measured using a Perkin-Elmer Envision microplate reader. Data were normalized to “% effect” with a positive control STING agonist that was known to maximize the luciferase signal and the negative control DMSO.

R232-STING [4] = biological target: T1, R232-STING; conditions: read-out: R232-STING SPA-IC50 Ki; STING residues 155-341, 100 nM 3H-cGAMP; KI from IC50 with Cheng-Prusoff equation

T1 sequence (Q86WV6 155-341 H232R): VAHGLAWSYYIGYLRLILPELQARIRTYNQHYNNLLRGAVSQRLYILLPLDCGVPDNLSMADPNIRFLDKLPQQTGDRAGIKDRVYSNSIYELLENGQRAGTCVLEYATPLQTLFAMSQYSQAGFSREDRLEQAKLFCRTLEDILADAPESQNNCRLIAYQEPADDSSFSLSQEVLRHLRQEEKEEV

| Structure (SMILES) | EC50 [2] [nM] | EC50 [3] [nM] | Ki (R232-STING [4]) [nM] | Ki (R232-STING [1]) [nM] |
| --- | --- | --- | --- | --- |
| CCn1nc(C)cc1-c1cn(CC(C)O)c(-c2nc(C(N)=O)cc3c2cnn3C)n1 (racemic) [AIP05, (Rac)-4-[4-(1-ethyl-3-methyl-1H-pyrazol-5-yl)-1-(2-hydroxypropyl)-1H-imidazol-2-yl]-1-methyl-1H-pyrazolo[4,3-c]pyridine-6-carboxamide] | 1230 | 1250 | – | 27.1 |
| Cc1cc(-c2cn(C)c(-c3nc(C(N)=O)cc4c3ccn4C)n2)n(CCCO)n1 [AIJ02, 4-{4-[1-(3-hydroxypropyl)-3-methyl-1H-pyrazol-5-yl]-1-methyl-1H-imidazol-2-yl}-1-methyl-1H-pyrrolo[3,2-c]pyridine-6-carboxamide] | 1510 | 1920 | – | 39.7 |
| COCCCn1nc(C)cc1-c1cn(C)c(-c2nc(C(N)=O)cc3c2cnn3C2CC2)n1 [Example AIN01, 1-cyclopropyl-4-{4-[1-(3-methoxypropyl)-3-methyl-1H-pyrazol-5-yl]-1-methyl-1H-imidazol-2-yl}-1H-pyrazolo[4,3-c]pyridine-6-carboxamide] | 730 | 800 | 4.6 | – |
| Cc1cc(-c2cn(C)c(-c3nc(C(N)=O)cc4c3cnn4C)n2)n(CC#N)n1 [Example AIP01, 4-{4-[1-(cyanomethyl)-3-methyl-1H-pyrazol-5-yl]-1-methyl-1H-imidazol-2-yl}-1-methyl-1H-pyrazolo[4,3-c]pyridine-6-carboxamide] | > 10000 | > 10000 | 43.1 | – |
| Cc1cc(-c2cn(C)c(-c3nc(C(N)=O)cc4c3cnn4C)n2)n(CC(N)=O)n1 [Example AIP02, 4-{4-[1-(2-amino-2-oxoethyl)-3-methyl-1H-pyrazol-5-yl]-1-methyl-1H-imidazol-2-yl}-1-methyl-1H-pyrazolo[4,3-c]pyridine-6-carboxamide] | > 10000 | > 10000 | 161 | – |

Continued, in another order:

| EC50 [2] [nM] | EC50 [3] [nM] | Ki (R232-STING [4]) [nM] | Structure (SMILES) | Ki (R232-STING [1]) [nM] |
| --- | --- | --- | --- | --- |
| 530 | 530 | 24.6 | Cc1cc(-c2cn(C)c(-c3nc(C(N)=O)cc4c3cnn4C)n2)n(CCCOC(F)F)n1 [Example AIL01, 4-(4-{1-[3-(difluoromethoxy)propyl]-3-methyl-1H-pyrazol-5-yl}-1-methyl-1H-imidazol-2-yl)-1-methyl-1H-pyrazolo[4,3-c]pyridine-6-carboxamide] | – |
| 2240 | 2260 | 62.6 | Cc1cc(-c2cn(C)c(-c3nc(C(N)=O)cc4c3cnn4C)n2)n(CCC#N)n1 [Example AIQ01, 4-{4-[1-(2-cyanoethyl)-3-methyl-1H-pyrazol-5-yl]-1-methyl-1H-imidazol-2-yl}-1-methyl-1H-pyrazolo[4,3-c]pyridine-6-carboxamide] | – |
